Measured values: the supplement of paper PMC10307832

How the values were obtained:
Experiment in all cases: relative viability (nuclei count vs DMSO), 5 days (fraction); higher = more cells survive
[1] = compound: CN1CCN(CC1)C2=CC(=C(C=C2)NC3=NC=C4C(=N3)N(C5=CC=CC=C5C(=O)N4C)C)OC [XMD8-85] + CS(=O)(=O)CCNCc1ccc(-c2ccc3ncnc(Nc4ccc(OCc5cccc(F)c5)c(Cl)c4)c3c2)o1 [Lapatinib] (partner 2 µM)
How it was run: (§1)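 Relative viability was taken as the ratio of nuclei in treated wells to nuclei in vehicle wells. Lung cancer cell lines in 1536-well plates received compounds by pin tool one day after seeding, either one drug alone or a fixed anchor-drug dose plus five library-drug doses (not always all listed) in √10 steps. Nuclei were counted on 4× images after 5 days of treatment, and values are medians of duplicate plates.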

[2] = compound: CN1CCN(CC1)C2=CC(=C(C=C2)NC3=NC=C4C(=N3)N(C5=CC=CC=C5C(=O)N4C)C)OC [XMD8-85] + CS(=O)(=O)N1CCN(Cc2cc3nc(-c4cccc5[nH]ncc45)nc(N4CCOCC4)c3s2)CC1 [Pictilisib] (partner 1 µM)
How it was run: as §1

[3] = compound: O=C(O)C(Cc1ccccc1[N+](=O)[O-])=NNc1nc(-c2ccc(Cl)c(Cl)c2)cs1 (mixture of isomers) [4EGI-1] + CS(=O)(=O)CCNCc1ccc(-c2ccc3ncnc(Nc4ccc(OCc5cccc(F)c5)c(Cl)c4)c3c2)o1 [Lapatinib] (partner 2 µM)
How it was run: as §1

[4] = compound: O=C(O)C(Cc1ccccc1[N+](=O)[O-])=NNc1nc(-c2ccc(Cl)c(Cl)c2)cs1 (mixture of isomers) [4EGI-1] + Cc1nc(NC(=O)N2CCC[C@H]2C(N)=O)sc1-c1ccnc(C(C)(C)C(F)(F)F)c1 [Alpelisib] (partner 2 µM)
How it was run: as §1

Cell Line	relative viability ([1]; first compound 0.08 µM)	relative viability ([1]; first compound 0.253 µM)	relative viability ([1]; first compound 0.8 µM)	relative viability ([1]; first compound 2.53 µM)	relative viability ([1]; first compound 8 µM)	relative viability ([2]; first compound 0.08 µM)	relative viability ([2]; first compound 0.253 µM)	relative viability ([2]; first compound 0.8 µM)	relative viability ([2]; first compound 2.53 µM)	relative viability ([2]; first compound 8 µM)	relative viability ([3]; first compound 0.5 µM)	relative viability ([3]; first compound 1.581 µM)	relative viability ([3]; first compound 5 µM)	relative viability ([3]; first compound 15.81 µM)	relative viability ([3]; first compound 50 µM)	relative viability ([4]; first compound 0.5 µM)	relative viability ([4]; first compound 1.581 µM)	relative viability ([4]; first compound 5 µM)	relative viability ([4]; first compound 15.81 µM)	relative viability ([4]; first compound 50 µM)
EBC-1	0.2	0.21	0.174	0.184	0.172	0.383	0.364	0.502	0.339	0.18	0.205	0.246	0.201	0.217	0.166	0.947	0.876	1.08	0.477	0.273
NCI-H2087	1.01	1.08	1.05	1.12	0.974	0.924	0.723	0.961	0.83	0.542	1.11	0.934	1.07	0.911	0.222	1.17	1.09	0.985	0.839	0.221
EMC-BAC-2	0.914	0.847	0.945	0.944	0.835	0.493	0.569	0.527	0.589	0.451	1.06	0.744	0.89	0.913	0.88	0.733	0.628	0.72	0.485	0.656
NCI-H2126	0.705	0.714	0.757	0.837	0.646	0.503	0.497	0.531	0.522	0.429	0.832	0.836	0.76	0.736	0.643	0.779	0.716	0.749	0.67	0.739
A549	1.08	0.974	1.06	1.03	0.869	0.517	0.516	0.591		0.483	1.15	1.04	1.09	0.77	0.0791	0.801	0.479	0.984	0.611	0.273
IA-LM	0.847	0.59	0.611	0.455	0.16	0.342	0.187	0.334	0.193	0.143	0.886	0.589	0.581	0.109	0.0728	0.916	0.647	0.586	0.149	0.0833
HCC-366	0.94	1.12	1.09	0.994	1.06	0.137	0.239	0.146	0.168	0.304	1.03	0.632	1.02	1.03	0.134	0.642	0.364	0.399	0.5	0.331
NCI-H520	0.825	0.749	1.03	0.906	0.756	0.222	0.271	0.295	0.248	0.231	0.98	0.882	0.963	0.738	0.144	0.918	0.754	1.02	0.866	0.543
HCC-44	0.942	0.884	1.1	1.06	0.959	0.616	0.548	0.767	0.783	0.452	0.985	0.802	0.929	0.809	0.366	0.86	0.485	0.79	0.532	0.182
BEN	0.86		0.571	0.487	0.334	0.535	0.547		0.483	0.38	0.786	0.854	0.734	0.573	0.612	1.05	1.17	1.11	1.07	0.915
HARA	0.761	0.781	0.907	0.787	0.569	0.47	0.473	0.455	0.436	0.259	0.697	0.732	0.817	0.724	0.257	0.935	0.921	0.837	0.833	0.295
NCI-H2085	0.791	0.778	0.815	0.719	0.566	0.378	0.427	0.467	0.436	0.445	0.857	0.769	0.807	0.586	0.357	1.19	1	1.03	0.831	0.626
NCI-H838	0.942	1.05	1.09	0.967	0.45	0.423	0.455	0.503	0.429	0.317	1.24		1.16	0.654	0.173	1.02		1.06	0.907	0.524
NCI-H647	1.08	1.09	1.24	1.48	0.638	0.473	0.45	0.367	0.434	0.155	1.03	0.989	1.08	0.505	0.124	1.16	1.17	1.41	0.647	0.108
NCI-H1651	0.764	0.842	0.96	0.977	0.555	0.527	0.454	0.584	0.534	0.44	0.993	0.85	0.813	0.665	0.185	0.927	0.914	0.913	0.906	0.556
NCI-H322M	0.507	0.569	0.593	0.585	0.522	0.551	0.501	0.502	0.527	0.409	0.617	0.558	0.637	0.566	0.427	0.778	0.895	0.771	0.722	0.809
